The values that follow are results of earlier work, collected in patent publication US20260199330A1, “MEDICAL METHOD AND USE” (ViiV Healthcare UK (No.3) Limited, priority 2024, published 2026).

For series [1] the following is noted: oral 60 mg once daily for 2 years, LAI116482 (LATTE).
For series [2] the following is noted: supratherapeutic oral CAB 150 mg q12 h×3 doses, TQT study.

Molecules are shown by their SMILES.

On to `C[C@H]1CO[C@@H]2Cn3cc(C(=O)NCc4ccc(F)cc4F)c(=O)c(O)c3C(=O)N12` [Cabotegravir, (3S, 11aR)-N-((2,4-difluorophenyl)methyl)-6-hydroxy-3-methyl-5,7-dioxo-2,3,5, 11,11a-hexahydro(1,3)oxazolo(3,2-a)pyrido(1,2-d)pyrazine-8-carboxamide], for which the “median (steady state) Cmax, long-term safety threshold” value in series [1] was 13100 ng/mL. The “geometric mean Cmax, short-term safety threshold” value in series [2] is 22500 ng/mL.
